Structures can show the parent of a compound that is named as a salt.
Experiments:
[1] = test system: canine parvovirus 2c (CPV-2c); test: CPE visual scoring assay, CPV-2c in CrFK cells; assay type: cell-based
[2] = test system: feline panleukopenia virus (FPV); test: CPE visual scoring assay, FPV in CrFK cells; assay type: cell-based
Method: Crandell Reese Feline Kidney (CrFK) cells were grown in Dulbecco minimum essential medium (DMEM, Life Technologies) containing 1% sodium bicarbonate (Life Technologies), 1% L-Glutamine (Life Technologies) and 5% fetal calf serum (FCS, Biochrom). In a 96 well plate a serial dilution of compound was added together with 10 TCID50 of feline panleukopenia virus (FPV) or 10 TCID50 canine parvovirus 2c (CPV-2c) and 20,000 CrFK cells. Infected cells without any added compound were used as positive controls (virus control) and uninfected cells were used as negative controls (cell control). The cells were incubated for 4 days and viral cytopathogenic effect (CPE) was scored visually. EC50-values were determined as the concentration of compound that inhibited 50% of the viral replication as compared with virus control.
2-methyladamantan-2-amine HCl and 2-ethyladamantan-2-amine HCl were dissolved in Dulbecco's phosphate buffered saline (DPBS) at a concentration of 10 mM. The inhibition experiments and the preparation thereof were performed as described above for Example 2. […]

[3] = test system: feline panleukopenia virus (FPV); test: FPV titer reduction, titration of produced virus on CrFK cells; assay type: cell-based
Method: (§1) Amantadine, amantadine hydrochloride (HCl) and memantine were dissolved in Dulbecco's phosphate buffered saline (DPBS) at a concentration of 10 mM. Crandell Reese Feline Kidney (CrFK) cells were grown in Dulbecco minimum essential medium (DMEM, Life Technologies) containing 1% sodium bicarbonate (Life Technologies), 1% L-Glutamine (Life Technologies) and 5% fetal calf serum (FCS, Biochrom). In a 24 well plate 100,000 CrFK cells were seeded on day 0. On day 1, the medium was removed and 10 TCID50 of FPV or 10 TCID50 CPV-2c was added and incubated for 2 h at 37° C. in humidified conditions. After incubation, medium was removed and CrFK cells were washed with DPBS. Subsequently, a serial dilution of compound in culture medium was added (250, 50, and 10 μM). Infected cells without any added compound were used as positive controls (virus control) and uninfected cells were used as negative controls (cell control). The cells were incubated at 37° C. in humidified conditions. After 4 days of incubation medium containing newly produced virus particles was collected and viral titers were determined using CrFK cells. In addition, 200 μL of supernatant was extracted to obtain FPV or CPV-2c DNA using the QIAamp DNA extraction kit (Qiagen). The extracted FPV DNA was detected by a real time PCR using the Taqman Fast Universal mastermix (Life Technologies) and the standard Fast cycling protocol using the StepOnePlus real time device (Applied Biosystems). In the PCR mixture an optimized 900 nM of each forward and reverse primer was used and 250 nM FAM-BHQ1 labeled probe as published by Decaro et al. (J. Virol. Methods 2008, 147, 67-71). EC50 values were determined as the concentration of compound that inhibited 50% of the viral DNA.
Reduction of CPV-2c and FPV titers under increasing concentrations of amantadine hydrochloride (HCl) and memantine are shown in Table 3a and 3b, respectively. Viral titers are determined by titration of the produced virus on CrFK cells and incubated for 5 days. The obtained titers where compared with the control (virus production without addition of compound).

[4] = test system: feline panleukopenia virus (FPV); test: FPV DNA reduction by quantitative PCR, CrFK cells; assay type: cell-based; settings: read-out: EC50-value (μM) for FPV, DNA reduction
Method: as §1
2-methyladamantan-2-amine HCl and 2-ethyladamantan-2-amine HCl were dissolved in Dulbecco's phosphate buffered saline (DPBS) at a concentration of 10 mM. The inhibition experiments and the preparation thereof were performed as described above for Example 2.

[5] = test system: canine parvovirus 2c (CPV-2c); test: CPV-2c titer reduction, titration of produced virus on CrFK cells; assay type: cell-based
[6] = test system: canine parvovirus 2c (CPV-2c); test: CPV-2c DNA reduction by quantitative PCR, CrFK cells; assay type: cell-based
[7] = test system: canine parvovirus type 2 (CPV2); test: Treatment of dog naturally infected with canine parvovirus type 2; assay type: in vivo; settings: beagle puppy, CPV2 PCR-positive, 10 mg/kg twice daily for 2 weeks
[8] = Canine parvovirus, CRFK, 96 h, read-out: EC50-value (μM) for CPV-2c, Table 1, CPE visual scoring, CrFK cells, 10 TCID50, 4 days
[9] = Feline panleukopenia virus, CRFK, 96 h, Table 1, CPE visual scoring, CrFK cells, 10 TCID50, 4 days, read-out: EC50-value (μM) for FPV
[10] = Feline panleukopenia virus, CRFK, 96 h, Table 2, viral DNA in supernatant by quantitative PCR, CrFK cells, 4 days
[11] = Canine parvovirus, 96 h, Table 1, CPE visual scoring, CrFK cells, 10 TCID50, 4 days, read-out: EC50-value (μM) for CPV-2c
[12] = Canine parvovirus, CRFK, Table 4a, CPE visual scoring assay, read-out: EC50-value (μM) for CPV-2c
[13] = Feline panleukopenia virus, CRFK, read-out: EC50-value (μM) for FPV, Table 4a, CPE visual scoring assay
[14] = Feline panleukopenia virus, CRFK, Table 4b, quantitative PCR
[15] = CRFK, Table 4b, quantitative PCR, read-out: EC50-value (μM) for CPV-2c, DNA reduction
[16] = 96 h, Table 2, viral DNA in supernatant by quantitative PCR, CrFK cells, 4 days, read-out: EC50-value (μM) for CPV-2c, DNA reduction

| SMILES | EC50 [2, 9] | Titer reduction of FPV, log10 reduction compared with control ([3]; 10 μM compound) | Titer reduction of FPV, log10 reduction compared with control ([3]; 50 μM compound) | Titer reduction of FPV, log10 reduction compared with control ([3]; 250 μM compound) | Titer reduction of CPV-2c, log10 reduction compared with control ([5]; 10 μM compound) | Titer reduction of CPV-2c, log10 reduction compared with control ([5]; 50 μM compound) | Titer reduction of CPV-2c, log10 reduction compared with control ([5]; 250 μM compound) | EC50 [1, 11] | further results |
| --- | --- | --- | --- | --- | --- | --- | --- | --- | --- |
| CC(N)C12CC3CC(CC(C3)C1)C2 (centres unmarked) [Rimantadine, rimantadine] | > 250 µM | – | – | – | – | – | – | – | EC50 [1, 8]: > 250 µM |
| NC12CC3CC(CC(C3)C1)C2 [Amantadine, amantadine] | 18.7 µM | 0 log10 | 0.48 log10 | 1.43 log10 | 0 log10 | 2.23 log10 | 2.23 log10 | – | EC50 [1, 8]: 22.6 µM; EC50 [4, 10]: 57.1 µM; EC50 ([6]; CRFK, 96 h, read-out: EC50-value (μM) for CPV-2c, DNA reduction, Table 2, viral DNA in supernatant by quantitative PCR, CrFK cells, 4 days): 53.5 µM |
| CNC12CC3CC(CC(C3)C1)C2 [N-methyl-1-adamantylamine] | > 250 µM | – | – | – | – | – | – | > 250 µM | – |
| CCC1(N)C2CC3CC(C2)CC1C3 (centres unmarked) [2-ethyladamantan-2-amine] | – | – | – | – | – | – | – | – | EC50 [1, 12]: 4.2 µM; EC50 [2, 13]: 2.42 µM; EC50 [4, 14]: 1.31 µM; EC50 [6, 15]: 2.44 µM |
| NC12CC3CC(C1)CC(O)(C3)C2 [3-amino-1-amantadol] | – | – | – | – | – | – | – | – | EC50 ([1]; Table 1, CPE visual scoring, CrFK cells, 10 TCID50, 4 days, read-out: EC50-value (μM) for CPV-2c): > 250 µM; EC50 ([2]; Table 1, CPE visual scoring, CrFK cells, 10 TCID50, 4 days, read-out: EC50-value (μM) for FPV): > 250 µM |
| NC1C2CC3CC(C2)CC1C3 (centres unmarked) [2-adamantylamine HCl, 2-adamantylamine hydrochloride] | 17.3 µM | – | – | – | – | – | – | 5.12 µM | – |
| CC1(N)C2CC3CC(C2)CC1C3 (centres unmarked) [2-methyladamantan-2-amine] | – | – | – | – | – | – | – | – | EC50 [1, 12]: 2.25 µM; EC50 [2, 13]: 1.95 µM; EC50 [4, 14]: < 0.781 µM; EC50 [6, 15]: 1.14 µM |
| Cl.NC12CC3CC(CC(C3)C1)C2 [Amantadine HCl, 1-Aminoadamantane hydrochloride] | – | 0 log10 | 1.50 log10 | 2.44 log10 | 0.50 log10 | 2.71 log10 | 2.71 log10 | 14 µM | Clinical signs of parvovirus infection [7]: improved from day 3 onwards; Recovery after 2 weeks of treatment [7]: recovered completely; EC50 ([2]; Table 1, CPE visual scoring, CrFK cells, 10 TCID50, 4 days, hydrochloride, read-out: EC50-value (μM) for FPV): 33.3 µM; EC50 ([4]; Table 2, viral DNA in supernatant by quantitative PCR, CrFK cells, 4 days, hydrochloride): 30.1 µM; EC50 [6, 16]: 6.59 µM |
| NCC12CC3CC(CC(C3)C1)C2 [1-adamantanemethylamine] | > 250 µM | – | – | – | – | – | – | > 250 µM | – |
| CC12CC3CC(C)(C1)CC(N)(C3)C2 [Memantine, memantine] | 23.3 µM | 0 log10 | 0.71 log10 | 1.41 log10 | 0 log10 | 0.50 log10 | 1.55 log10 | 23.9 µM | EC50 [4, 10]: 42.6 µM; EC50 [6, 16]: 17.9 µM |
